The numbers were not newly measured in patent US9827309B2, “Treating cancer with a combination of a PD-1 antagonist and dinaciclib” (Merck Sharp & Dohme Corp., priority 2013, dated 2017), which cites them from elsewhere.

For the data set the following is noted: clinical trials; cited from earlier work.

As for `CCc1cnn2c(NCc3ccc[n+]([O-])c3)cc(N3CCCC[C@H]3CCO)nc12` [Dinaciclib, 1-[3-ethyl-7-[[(1-oxido-3-pyridinyl)methyl]amino]pyrazolo[1,5-a]pyrimidin-5-yl]-2(S)-piperidineethanol], the “most common dose-limiting toxicity” value was “neutropenia”.
